Literature values in US8318203B2, “Form of administration of racecadotril” (Bioprojet, priority 2006, dated 2012).

Key:
[1] = racecadotrilate, active metabolite of the pro-drug racecadotril

CC(=O)SCC(Cc1ccccc1)C(=O)NCC(=O)OCc1ccccc1 (racemic) [racecadotril, benzyl (RS)-2-[[2-[(acetylsulphanyl)methyl]-3-phenylpropanoyl]amino]acetate]
solubility in water: insoluble in water

O=C(O)CNC(=O)C(CS)Cc1ccccc1 (racemic) [racecadotrilate]
half-life [1]: three to four
